The numbers were not newly measured in PMC11010885, “Functional Analysis and Tissue-Specific Expression of Calcitonin and CGRP with RAMP-Modulated Receptors CTR and CLR in Chickens” (Animals : an Open Access Journal from MDPI, 2024), which cites them from elsewhere.

The data set concerns RAMP1- and RAMP3-derived amylin receptors. To be noted: ref [51],[53]; cited from earlier work. How it is done: In mammals, CTR functions as a receptor for three distinct hormones: CT, CGRP, and amylin (not explored in this study). The specific affinity spectrum is determined by its co-expression with RAMPs. Although CTR alone is a receptor for CT that is involved in bone homeostasis, CTRs in complex with RAMP1–3 are high-affinity receptors for amylin, a peptide involved in the regulation of food intake. […] The CTR + RAMP1 complex is a ...

Take “human CT: human CT, cited from the literature”: the affinity entry was “low affinity”.
In the case of “rat amylin: rat amylin, cited from the literature”, the affinity entry is “moderate affinity”.
